# Data taken from paper PMC6407913, “DREADD Agonist 21 Is an Effective Agonist for Muscarinic-Based DREADDs in Vitro and in Vivo” (ACS Pharmacology & Translational Science, 2018).
# Where “and” joins values, the source holds several entries; their conditions need not be identical. Identical values can stand only once.
# How the values were obtained:
# Type in all cases: cell-based
# [1] = target: T1, 318 nonolfactory human GPCRs (Homo sapiens, UniProt O00222); conditions: GRM8; C21 5 µM
# T1 construct: expressed in transfected cells; host or cells: HTLA cells, transient
# [2] = target: T2, 318 nonolfactory human GPCRs (Homo sapiens, UniProt O14626); conditions: GPR171; C21 5 µM
# T2 construct: expressed in transfected cells; host or cells: HTLA cells, transient
# [3] = target: T3, 318 nonolfactory human GPCRs (Homo sapiens, UniProt Q9GZN0); conditions: GPR88; C21 5 µM
# T3 construct: expressed in transfected cells; host or cells: HTLA cells, transient
# [4] = target: T4, 318 nonolfactory human GPCRs (Homo sapiens, UniProt P32241); conditions: VIPR1; C21 5 µM
# T4 construct: expressed in transfected cells; host or cells: HTLA cells, transient
# T4 sequence (P32241 31-457): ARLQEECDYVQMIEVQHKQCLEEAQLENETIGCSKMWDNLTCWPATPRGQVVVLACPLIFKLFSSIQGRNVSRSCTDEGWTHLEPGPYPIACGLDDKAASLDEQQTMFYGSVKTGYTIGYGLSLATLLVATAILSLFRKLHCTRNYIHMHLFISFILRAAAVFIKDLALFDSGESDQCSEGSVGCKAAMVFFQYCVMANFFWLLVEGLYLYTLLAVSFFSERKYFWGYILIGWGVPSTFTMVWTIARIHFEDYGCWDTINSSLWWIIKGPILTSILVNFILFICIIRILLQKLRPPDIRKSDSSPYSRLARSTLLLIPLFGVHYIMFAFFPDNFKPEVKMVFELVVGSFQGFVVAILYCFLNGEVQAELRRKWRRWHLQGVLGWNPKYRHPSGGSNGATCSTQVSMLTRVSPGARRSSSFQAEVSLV
# [5] = target: T5, 318 nonolfactory human GPCRs (Homo sapiens, UniProt Q9NS75); conditions: CYSLTR2; C21 5 µM
# T5 construct: expressed in transfected cells; host or cells: HTLA cells, transient
# [6] = target: T6, 318 nonolfactory human GPCRs (Homo sapiens, UniProt Q14330); conditions: GPR18; C21 5 µM
# T6 construct: expressed in transfected cells; host or cells: HTLA cells, transient
# [7] = target: T7, 318 nonolfactory human GPCRs (Homo sapiens, UniProt Q9GZQ6); conditions: NPFF1; C21 5 µM
# T7 construct: expressed in transfected cells; host or cells: HTLA cells, transient
# [8] = target: T8, 318 nonolfactory human GPCRs (Homo sapiens, UniProt P47898); conditions: HTR5; C21 5 µM
# T8 construct: expressed in transfected cells; host or cells: HTLA cells, transient
# T8 sequence (P47898 whole entry): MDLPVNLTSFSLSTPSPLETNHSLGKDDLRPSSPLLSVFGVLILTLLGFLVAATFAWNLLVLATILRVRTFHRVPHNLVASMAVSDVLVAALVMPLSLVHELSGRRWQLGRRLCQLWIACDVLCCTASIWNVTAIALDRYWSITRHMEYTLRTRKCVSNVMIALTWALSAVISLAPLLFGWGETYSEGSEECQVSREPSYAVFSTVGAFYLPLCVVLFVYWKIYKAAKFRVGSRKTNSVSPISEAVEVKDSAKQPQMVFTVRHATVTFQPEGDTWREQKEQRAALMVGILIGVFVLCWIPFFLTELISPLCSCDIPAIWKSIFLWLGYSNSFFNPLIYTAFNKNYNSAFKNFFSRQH
# [9] = target: T9, 318 nonolfactory human GPCRs (Homo sapiens, UniProt Q9UKP6); conditions: UTS2R; C21 5 µM
# T9 construct: expressed in transfected cells; host or cells: HTLA cells, transient
# T9 sequence (Q9UKP6 whole entry): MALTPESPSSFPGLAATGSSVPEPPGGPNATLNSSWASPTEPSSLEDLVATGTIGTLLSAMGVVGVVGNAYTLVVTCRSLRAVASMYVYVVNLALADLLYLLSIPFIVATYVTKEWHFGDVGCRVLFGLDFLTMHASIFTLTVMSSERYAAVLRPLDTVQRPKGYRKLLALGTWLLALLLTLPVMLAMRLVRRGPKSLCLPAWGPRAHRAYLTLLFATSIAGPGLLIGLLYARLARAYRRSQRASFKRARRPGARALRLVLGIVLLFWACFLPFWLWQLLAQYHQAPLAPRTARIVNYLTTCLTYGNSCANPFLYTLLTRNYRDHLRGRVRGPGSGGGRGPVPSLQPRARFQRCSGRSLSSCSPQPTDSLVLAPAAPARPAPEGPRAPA
# [10] = target: T10, 318 nonolfactory human GPCRs (Homo sapiens, UniProt P30968); conditions: GNRHR; C21 5 µM
# T10 construct: expressed in transfected cells; host or cells: HTLA cells, transient
# T10 sequence (P30968 whole entry): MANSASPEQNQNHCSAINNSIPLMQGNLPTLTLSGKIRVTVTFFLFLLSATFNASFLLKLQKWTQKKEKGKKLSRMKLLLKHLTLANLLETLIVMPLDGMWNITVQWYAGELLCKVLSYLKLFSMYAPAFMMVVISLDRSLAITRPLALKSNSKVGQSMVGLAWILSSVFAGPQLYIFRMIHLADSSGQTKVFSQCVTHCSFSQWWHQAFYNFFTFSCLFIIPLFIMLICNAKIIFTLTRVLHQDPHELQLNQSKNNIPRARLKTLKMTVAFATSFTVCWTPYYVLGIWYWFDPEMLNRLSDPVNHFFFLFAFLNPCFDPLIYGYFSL
# [11] = target: T11, 318 nonolfactory human GPCRs (Homo sapiens, UniProt P08912); conditions: CHRM5; C21 5 µM
# T11 construct: expressed in transfected cells; host or cells: HTLA cells, transient
# [12] = target: T12, 318 nonolfactory human GPCRs (Homo sapiens, UniProt P51684); conditions: CCR6; C21 5 µM
# T12 construct: expressed in transfected cells; host or cells: HTLA cells, transient
# T12 sequence (P51684 whole entry): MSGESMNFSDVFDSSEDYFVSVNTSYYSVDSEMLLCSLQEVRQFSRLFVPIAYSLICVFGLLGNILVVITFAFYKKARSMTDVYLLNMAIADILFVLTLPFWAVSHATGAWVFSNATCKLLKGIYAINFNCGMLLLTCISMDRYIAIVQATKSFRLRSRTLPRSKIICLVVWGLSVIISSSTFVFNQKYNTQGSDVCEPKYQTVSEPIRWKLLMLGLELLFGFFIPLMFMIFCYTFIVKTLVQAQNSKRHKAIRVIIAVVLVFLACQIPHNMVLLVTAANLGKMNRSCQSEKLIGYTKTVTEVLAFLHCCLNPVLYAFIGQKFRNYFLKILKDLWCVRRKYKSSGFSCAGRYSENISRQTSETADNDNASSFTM
# [13] = target: T13, 318 nonolfactory human GPCRs (Homo sapiens, UniProt Q13585); conditions: GPR50; C21 5 µM
# T13 construct: expressed in transfected cells; host or cells: HTLA cells, transient
# [14] = target: T14, 318 nonolfactory human GPCRs (Homo sapiens, UniProt Q9H3N8); conditions: HRH4; C21 5 µM
# T14 construct: expressed in transfected cells; host or cells: HTLA cells, transient
# T14 sequence (Q9H3N8 whole entry): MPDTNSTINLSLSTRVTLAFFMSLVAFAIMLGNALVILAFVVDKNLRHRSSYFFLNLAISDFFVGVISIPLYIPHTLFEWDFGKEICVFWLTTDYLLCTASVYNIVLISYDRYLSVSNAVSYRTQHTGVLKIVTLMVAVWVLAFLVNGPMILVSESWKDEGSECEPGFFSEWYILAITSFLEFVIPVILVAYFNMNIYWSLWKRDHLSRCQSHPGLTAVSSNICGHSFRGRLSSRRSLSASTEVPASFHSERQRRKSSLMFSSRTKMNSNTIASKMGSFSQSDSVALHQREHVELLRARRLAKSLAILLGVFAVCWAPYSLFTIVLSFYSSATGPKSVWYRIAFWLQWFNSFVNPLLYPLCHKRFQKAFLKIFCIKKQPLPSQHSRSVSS
# [15] = target: T15, 318 nonolfactory human GPCRs (Homo sapiens, UniProt O14842); conditions: FFA1; C21 5 µM
# T15 construct: expressed in transfected cells; host or cells: HTLA cells, transient
# T15 sequence (O14842 whole entry): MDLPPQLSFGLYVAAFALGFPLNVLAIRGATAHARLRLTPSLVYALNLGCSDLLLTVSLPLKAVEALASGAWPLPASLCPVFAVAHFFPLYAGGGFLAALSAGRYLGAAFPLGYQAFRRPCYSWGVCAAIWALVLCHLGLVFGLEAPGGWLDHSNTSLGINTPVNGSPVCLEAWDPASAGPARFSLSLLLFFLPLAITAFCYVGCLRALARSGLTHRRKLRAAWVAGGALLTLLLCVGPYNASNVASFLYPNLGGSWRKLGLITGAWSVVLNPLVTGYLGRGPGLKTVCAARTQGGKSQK
# [16] = target: T16, 318 nonolfactory human GPCRs (Homo sapiens, UniProt Q96LB2); conditions: MRGPRX1; C21 5 µM
# T16 construct: expressed in transfected cells; host or cells: HTLA cells, transient
# [17] = target: 318 nonolfactory human GPCRs (Homo sapiens, UniProt P35462); conditions: DRD3; C21 5 µM
# 318 nonolfactory human GPCRs (Homo sapiens, UniProt P35462), sequence (P35462 whole entry): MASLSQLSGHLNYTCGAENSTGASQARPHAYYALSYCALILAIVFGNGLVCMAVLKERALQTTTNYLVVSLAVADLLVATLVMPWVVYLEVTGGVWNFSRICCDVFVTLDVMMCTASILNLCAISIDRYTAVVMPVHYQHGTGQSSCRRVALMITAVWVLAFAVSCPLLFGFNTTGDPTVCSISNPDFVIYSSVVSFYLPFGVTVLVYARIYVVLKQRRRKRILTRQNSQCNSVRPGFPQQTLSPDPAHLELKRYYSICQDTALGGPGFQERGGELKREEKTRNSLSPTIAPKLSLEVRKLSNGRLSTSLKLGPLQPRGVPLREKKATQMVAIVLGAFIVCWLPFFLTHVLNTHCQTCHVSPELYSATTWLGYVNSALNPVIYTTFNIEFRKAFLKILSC
# [18] = target: T17, 318 nonolfactory human GPCRs (Homo sapiens, UniProt P46089); conditions: GPR3; C21 5 µM
# T17 construct: expressed in transfected cells; host or cells: HTLA cells, transient
# [19] = target: 318 nonolfactory human GPCRs (Homo sapiens, UniProt Q13258); conditions: PTGDR; C21 5 µM
# [20] = target: T18, 318 nonolfactory human GPCRs (Homo sapiens, UniProt Q8TDS7); conditions: MRGPRD; C21 5 µM
# T18 construct: expressed in transfected cells; host or cells: HTLA cells, transient
# [21] = target: T19, 318 nonolfactory human GPCRs (Homo sapiens, UniProt P25024); conditions: CXCR1; C21 5 µM
# T19 construct: expressed in transfected cells; host or cells: HTLA cells, transient
# T19 sequence (P25024 whole entry): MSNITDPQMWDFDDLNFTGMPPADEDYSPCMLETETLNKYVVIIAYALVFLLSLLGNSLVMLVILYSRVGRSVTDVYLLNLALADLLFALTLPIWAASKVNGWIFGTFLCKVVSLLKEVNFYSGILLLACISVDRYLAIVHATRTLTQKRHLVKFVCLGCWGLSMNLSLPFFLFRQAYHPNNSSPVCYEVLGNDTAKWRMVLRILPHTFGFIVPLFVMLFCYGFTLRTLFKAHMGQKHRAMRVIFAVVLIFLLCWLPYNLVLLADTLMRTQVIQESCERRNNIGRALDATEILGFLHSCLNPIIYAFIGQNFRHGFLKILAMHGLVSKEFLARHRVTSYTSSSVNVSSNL
# [22] = target: T20, 318 nonolfactory human GPCRs (Homo sapiens, UniProt Q969N4); conditions: TAAR8; C21 5 µM
# T20 construct: expressed in transfected cells; host or cells: HTLA cells, transient
# [23] = target: T21, 318 nonolfactory human GPCRs (Homo sapiens, UniProt P25089); conditions: FPR3; C21 5 µM
# T21 construct: expressed in transfected cells; host or cells: HTLA cells, transient
# T21 sequence (P25089 whole entry): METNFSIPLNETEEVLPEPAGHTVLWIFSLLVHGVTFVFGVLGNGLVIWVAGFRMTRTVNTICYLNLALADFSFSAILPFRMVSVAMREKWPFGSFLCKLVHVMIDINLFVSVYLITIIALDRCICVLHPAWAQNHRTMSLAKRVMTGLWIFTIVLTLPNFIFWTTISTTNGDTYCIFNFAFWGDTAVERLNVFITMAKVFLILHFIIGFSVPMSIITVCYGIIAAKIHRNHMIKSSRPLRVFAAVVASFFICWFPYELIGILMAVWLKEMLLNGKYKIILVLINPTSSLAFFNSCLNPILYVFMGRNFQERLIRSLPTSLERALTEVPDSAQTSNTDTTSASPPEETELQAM
# [24] = target: T22, 318 nonolfactory human GPCRs (Homo sapiens, UniProt Q8TDU6); conditions: GPBA; C21 5 µM
# T22 construct: expressed in transfected cells; host or cells: HTLA cells, transient
# [25] = target: T23, 318 nonolfactory human GPCRs (Homo sapiens, UniProt P51685); conditions: CCR8; C21 5 µM
# T23 construct: expressed in transfected cells; host or cells: HTLA cells, transient
# [26] = target: T24, 318 nonolfactory human GPCRs (Homo sapiens, UniProt Q8NFN8); conditions: GPR156; C21 5 µM
# T24 construct: expressed in transfected cells; host or cells: HTLA cells, transient
# T24 sequence (Q8NFN8 whole entry): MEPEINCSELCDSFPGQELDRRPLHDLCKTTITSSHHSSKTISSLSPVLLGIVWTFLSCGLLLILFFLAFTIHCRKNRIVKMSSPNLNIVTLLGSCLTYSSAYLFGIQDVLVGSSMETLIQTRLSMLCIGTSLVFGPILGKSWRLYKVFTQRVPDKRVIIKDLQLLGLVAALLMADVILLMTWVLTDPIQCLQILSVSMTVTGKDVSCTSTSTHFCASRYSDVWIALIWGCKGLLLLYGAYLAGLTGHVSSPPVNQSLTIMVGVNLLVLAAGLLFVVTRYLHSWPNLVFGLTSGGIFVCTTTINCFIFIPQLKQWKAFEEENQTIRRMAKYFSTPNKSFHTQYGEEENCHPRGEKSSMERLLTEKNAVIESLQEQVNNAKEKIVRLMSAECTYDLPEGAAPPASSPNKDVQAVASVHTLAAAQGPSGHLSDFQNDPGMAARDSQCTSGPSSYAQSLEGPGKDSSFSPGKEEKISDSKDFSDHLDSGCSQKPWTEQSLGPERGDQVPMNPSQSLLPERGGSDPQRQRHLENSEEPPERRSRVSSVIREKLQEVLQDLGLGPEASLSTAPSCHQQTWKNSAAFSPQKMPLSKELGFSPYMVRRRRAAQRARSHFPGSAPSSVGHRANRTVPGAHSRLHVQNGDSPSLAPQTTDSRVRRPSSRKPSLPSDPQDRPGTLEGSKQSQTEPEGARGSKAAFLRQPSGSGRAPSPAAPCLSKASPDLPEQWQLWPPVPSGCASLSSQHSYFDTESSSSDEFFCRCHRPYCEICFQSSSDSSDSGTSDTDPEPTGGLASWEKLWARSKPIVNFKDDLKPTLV
# [27] = target: T25, 318 nonolfactory human GPCRs (Homo sapiens, UniProt O14843); conditions: FFA3; C21 5 µM
# T25 construct: expressed in transfected cells; host or cells: HTLA cells, transient
# [28] = target: T26, 318 nonolfactory human GPCRs (Homo sapiens, UniProt Q9NPC1); conditions: LTB4R2B; C21 5 µM
# T26 construct: expressed in transfected cells; host or cells: HTLA cells, transient
# [29] = target: T27, 318 nonolfactory human GPCRs (Homo sapiens, UniProt Q9Y5N1); conditions: HRH3; C21 5 µM
# T27 construct: expressed in transfected cells; host or cells: HTLA cells, transient
# T27 sequence (Q9Y5N1 whole entry): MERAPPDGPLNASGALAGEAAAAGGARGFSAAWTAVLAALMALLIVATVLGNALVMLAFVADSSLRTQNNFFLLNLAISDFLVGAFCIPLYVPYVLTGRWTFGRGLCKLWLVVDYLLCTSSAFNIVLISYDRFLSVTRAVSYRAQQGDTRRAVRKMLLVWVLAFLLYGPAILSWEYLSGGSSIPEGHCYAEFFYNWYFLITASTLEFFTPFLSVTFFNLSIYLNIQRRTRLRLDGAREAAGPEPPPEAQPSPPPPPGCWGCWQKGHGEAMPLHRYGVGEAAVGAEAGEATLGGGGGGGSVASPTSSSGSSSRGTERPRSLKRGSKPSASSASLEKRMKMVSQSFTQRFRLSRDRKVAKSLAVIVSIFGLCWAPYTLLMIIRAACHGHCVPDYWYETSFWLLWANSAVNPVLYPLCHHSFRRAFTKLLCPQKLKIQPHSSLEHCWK
# [30] = target: T28, 318 nonolfactory human GPCRs (Homo sapiens, UniProt P25101); conditions: EDNRA; C21 5 µM
# T28 construct: expressed in transfected cells; host or cells: HTLA cells, transient
# [31] = target: T29, 318 nonolfactory human GPCRs (Homo sapiens, UniProt Q86SQ6); conditions: GPR123; C21 5 µM
# T29 construct: expressed in transfected cells; host or cells: HTLA cells, transient
# [32] = target: T30, 318 nonolfactory human GPCRs (Homo sapiens, UniProt Q9Y5Y4); conditions: GPR44; C21 5 µM
# T30 construct: expressed in transfected cells; host or cells: HTLA cells, transient
# [33] = target: T31, 318 nonolfactory human GPCRs (Homo sapiens, UniProt Q86SM8); conditions: MRGPRE; C21 5 µM
# T31 construct: expressed in transfected cells; host or cells: HTLA cells, transient
structure (smiles),measurement,setting,value
"c1ccc2c(c1)N=C(N1CCNCC1)c1ccccc1N2 [C21, 11-(1-piperazinyl)-5H-dibenzo[b,e][1,4]diazepine]",FOLD OVER BASAL,[1],0.7 fold and 0.9 fold and 0.6 fold
same,FOLD OVER BASAL,[2],0.6 fold and 0.5 fold and 0.8 fold
same,FOLD OVER BASAL,[3],1.1 fold and 1.9 fold and 1.5 fold
same,FOLD OVER BASAL,[4],0.6 fold and 0.9 fold and 0.8 fold
same,FOLD OVER BASAL,[5],0.7 fold and 0.9 fold and 1.1 fold
same,FOLD OVER BASAL,[6],0.8 fold and 1.1 fold and 0.7 fold
same,FOLD OVER BASAL,[7],1.5 fold and 1.1 fold and 1.2 fold
same,FOLD OVER BASAL,[8],0.9 fold and 1 fold and 0.8 fold
same,FOLD OVER BASAL,[9],0.8 fold and 0.9 fold and 1 fold
same,FOLD OVER BASAL,[10],0.6 fold and 1.2 fold and 0.9 fold and 0.7 fold
same,FOLD OVER BASAL,[11],0.7 fold and 0.8 fold
same,FOLD OVER BASAL,[12],1.1 fold and 1.2 fold and 1.7 fold
same,FOLD OVER BASAL,[13],0.6 fold and 0.7 fold and 0.5 fold and 0.9 fold
same,FOLD OVER BASAL,[14],6.3 fold and 4 fold and 5.7 fold and 3.8 fold
same,FOLD OVER BASAL,[15],0.4 fold and 0.7 fold and 0.8 fold
same,FOLD OVER BASAL,[16],0.6 fold and 1.2 fold
same,FOLD OVER BASAL,[17],3.6 fold and 4.2 fold and 3.3 fold and 5.4 fold
same,FOLD OVER BASAL,[18],0.8 fold and 0.9 fold and 0.7 fold
same,FOLD OVER BASAL,[19],1.3 fold and 1.5 fold and 1 fold and 1.4 fold
same,FOLD OVER BASAL,[20],0.7 fold and 0.9 fold and 0.6 fold
same,FOLD OVER BASAL,[21],0.6 fold and 1 fold and 0.8 fold and 1.1 fold
same,FOLD OVER BASAL,[22],0.5 fold and 0.8 fold
same,FOLD OVER BASAL,[23],1.2 fold and 0.9 fold and 1.1 fold and 1 fold
same,FOLD OVER BASAL,[24],1.1 fold and 1 fold and 1.2 fold
same,FOLD OVER BASAL,[25],0.8 fold and 1.3 fold and 1.5 fold and 1.1 fold
same,FOLD OVER BASAL,[26],1.1 fold and 0.9 fold and 1.4 fold
same,FOLD OVER BASAL,[27],0.6 fold and 0.7 fold
same,FOLD OVER BASAL,[28],1 fold and 0.9 fold and 1.1 fold and 1.2 fold
same,FOLD OVER BASAL,[29],1.3 fold and 0.9 fold and 0.8 fold
same,FOLD OVER BASAL,[30],0.8 fold and 1.4 fold and 0.9 fold
same,FOLD OVER BASAL,[31],1.2 fold and 0.7 fold and 1.1 fold and 0.9 fold
same,FOLD OVER BASAL,[32],1.3 fold and 2.1 fold and 1.5 fold and 1.4 fold
same,FOLD OVER BASAL,[33],0.7 fold and 0.8 fold
